Results as given in publication PMC3014376 (Vaccine, 2010).
Residues, ends and D or L forms follow the SMILES beside them.

Experiments:
Test in all cases: MHC-peptide binding assay
HLA-A*0206 = HLA-A*0206 (Homo sapiens, UniProt P04439, D140Y/D185E/D98H/E176V/E277Q/F33Y/G131W/G231S/I119V/I121R/I166T/I218V/L300P/L318F/N151K/N90K/P208A/P217A/Q86G/Q94H/R138H/R169H/T345S)
HLA-A*6802 = HLA-A*6802 (Homo sapiens, UniProt P04439, A269V/D140Y/D185E/E176V/E277Q/E87N/F33Y/G231S/I121R/I166T/I218V/L180W/L300P/L318F/N151K/P208A/P217A/Q86R/R138H/R169H/S129P/T345S/V36M)
HLA-A*0202 = HLA-A*0202 (Homo sapiens, UniProt P04439, D140Y/D185E/D98H/E176V/E277Q/G131W/G231S/I119L/I121R/I166T/I218V/L180W/L300P/L318F/N151K/N90K/P208A/P217A/Q67R/Q86G/Q94H/R138H/R169H/T345S)

| Compound | IC50 (HLA-A*0206) | IC50 (HLA-A*6802) | IC50 (HLA-A*0202) |
| --- | --- | --- | --- |
| CC[C@H](C)[C@H](NC(=O)[C@@H](NC(=O)[C@H](CC(C)C)NC(=O)[C@H](CC(C)C)NC(=O)[C@H](CO)NC(=O)[C@H](CC(C)C)NC(=O)[C@H](CO)NC(=O)[C@H](CC(C)C)NC(=O)[C@@H](N)Cc1ccccc1)C(C)C)C(=O)O [SAG2C38–46] (H-FLSLSLLVI-OH) | > 10000 nM | 9830 nM |  |
| CC(C)C[C@H](NC(=O)CN)C(=O)N[C@@H](C)C(=O)N[C@@H](C)C(=O)N[C@@H](C)C(=O)N[C@H](C(=O)N[C@H](C(=O)N[C@@H](C)C(=O)N[C@H](C(=O)O)C(C)C)C(C)C)C(C)C [SPA82–90] (H-GLAAAVVAV-OH) | 55 nM | 263 nM |  |
| CC[C@H](C)[C@H](NC(=O)[C@H](CO)NC(=O)[C@@H](NC(=O)[C@@H](NC(=O)[C@H](CCSC)NC(=O)[C@@H](N)Cc1ccccc1)[C@@H](C)CC)C(C)C)C(=O)N[C@@H](CO)C(=O)N[C@@H](CC(C)C)C(=O)N[C@H](C(=O)O)C(C)C [SAG2X351–359] (H-FMIVSISLV-OH) | 6.2 nM | 48 nM | 1.8 nM |
| CC[C@H](C)[C@H](NC(=O)[C@H](CCSC)NC(=O)[C@@H](N)Cc1ccccc1)C(=O)N[C@@H](C)C(=O)N[C@@H](Cc1ccccc1)C(=O)N[C@H](C(=O)N[C@@H](CO)C(=O)N[C@@H](CS)C(=O)N[C@@H](Cc1ccccc1)C(=O)N[C@@H](C)C(=O)O)[C@@H](C)CC [SAG2D180–189] (H-FMIAFISCFA-OH) | 112 nM | 397 nM | 56 nM |
| CC(C)C[C@H](NC(=O)CNC(=O)[C@H](CC(C)C)NC(=O)[C@H](CC(C)C)NC(=O)[C@@H](N)Cc1ccccc1)C(=O)N[C@@H](CC(C)C)C(=O)N[C@H](C(=O)N[C@@H](Cc1c[nH]cn1)C(=O)N[C@H](C(=O)O)C(C)C)C(C)C [SAG3_375–383] (H-FLLGLLVHV-OH) | 9.9 nM | 173 nM | 37 nM |
| CC[C@H](C)[C@H](NC(=O)[C@@H](NC(=O)[C@@H](N)Cc1ccccc1)C(C)C)C(=O)N[C@@H](Cc1ccccc1)C(=O)N[C@@H](C)C(=O)N[C@@H](CS)C(=O)N[C@@H](CC(N)=O)C(=O)N[C@@H](Cc1ccccc1)C(=O)N[C@H](C(=O)O)C(C)C [SAG2X44–52] (H-FVIFACNFV-OH) | 5.6 nM | 1.2 nM |  |
| CC[C@H](C)[C@H](N)C(=O)N[C@H](C(=O)N[C@@H](CCSC)C(=O)NCC(=O)N[C@@H](CO)C(=O)N[C@@H](CC(C)C)C(=O)N[C@@H](Cc1ccccc1)C(=O)N[C@@H](Cc1ccccc1)C(=O)N[C@H](C(=O)O)C(C)C)[C@@H](C)O [SPA12–20] (H-ITMGSLFFV-OH) | 0.26 nM | 1.1 nM | 0.64 nM |
| CC[C@H](C)[C@H](NC(=O)[C@H](Cc1ccc(O)cc1)NC(=O)[C@H](CC(=O)O)NC(=O)[C@@H](NC(=O)[C@H](CC(C)C)NC(=O)[C@@H](N)Cc1ccccc1)[C@@H](C)O)C(=O)N1CCC[C@H]1C(=O)NCC(=O)N[C@@H](C)C(=O)O [SAG3_136–144] (H-FLTDYIPGA-OH) | 1.2 nM | 2100 nM | 7.1 nM |
